Read-outs that look alike come from different tables or passages of the source.
Key:
human DGKα = target: T1, human DGKα (Homo sapiens, UniProt P23743); experiment: DGKα LIPGLO assay (extruded liposome substrate), in vitro DGK inhibition; type: biochemical; details: read-out: DGKa LIPGLO IC50
T1 construct: TVMV protease cleavage site (C); Hexa-His (C); made in house; host or cells: Sf9 insect cells (baculovirus, Bac-to-Bac)

Human venous whole blood = experiment: Human whole blood IFN-γ assay; type: cell-based; details: human whole blood, read-out: INFg Whole Blood Normalized Agonist EC50;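 further: blood from healthy donors exposed to compound for 1 h before stimulation with anti-CD3 and anti-CD28 at 1 µg/mL each, IFN-γ quantified in supernatant by AlphaLISA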
human DGKζ = target: T2, human DGKζ (Homo sapiens, UniProt Q13574); experiment: DGKζ LIPGLO assay (extruded liposome substrate), in vitro DGK inhibition; type: biochemical; details: read-out: DGKz LIPGLO IC50
T2 construct: TVMV protease cleavage site (C); Hexa-His (C); made in house; host or cells: Sf9 insect cells (baculovirus, Bac-to-Bac)
T2 sequence (Q13574 with tags, fused parts or gaps isoform Q13574-4): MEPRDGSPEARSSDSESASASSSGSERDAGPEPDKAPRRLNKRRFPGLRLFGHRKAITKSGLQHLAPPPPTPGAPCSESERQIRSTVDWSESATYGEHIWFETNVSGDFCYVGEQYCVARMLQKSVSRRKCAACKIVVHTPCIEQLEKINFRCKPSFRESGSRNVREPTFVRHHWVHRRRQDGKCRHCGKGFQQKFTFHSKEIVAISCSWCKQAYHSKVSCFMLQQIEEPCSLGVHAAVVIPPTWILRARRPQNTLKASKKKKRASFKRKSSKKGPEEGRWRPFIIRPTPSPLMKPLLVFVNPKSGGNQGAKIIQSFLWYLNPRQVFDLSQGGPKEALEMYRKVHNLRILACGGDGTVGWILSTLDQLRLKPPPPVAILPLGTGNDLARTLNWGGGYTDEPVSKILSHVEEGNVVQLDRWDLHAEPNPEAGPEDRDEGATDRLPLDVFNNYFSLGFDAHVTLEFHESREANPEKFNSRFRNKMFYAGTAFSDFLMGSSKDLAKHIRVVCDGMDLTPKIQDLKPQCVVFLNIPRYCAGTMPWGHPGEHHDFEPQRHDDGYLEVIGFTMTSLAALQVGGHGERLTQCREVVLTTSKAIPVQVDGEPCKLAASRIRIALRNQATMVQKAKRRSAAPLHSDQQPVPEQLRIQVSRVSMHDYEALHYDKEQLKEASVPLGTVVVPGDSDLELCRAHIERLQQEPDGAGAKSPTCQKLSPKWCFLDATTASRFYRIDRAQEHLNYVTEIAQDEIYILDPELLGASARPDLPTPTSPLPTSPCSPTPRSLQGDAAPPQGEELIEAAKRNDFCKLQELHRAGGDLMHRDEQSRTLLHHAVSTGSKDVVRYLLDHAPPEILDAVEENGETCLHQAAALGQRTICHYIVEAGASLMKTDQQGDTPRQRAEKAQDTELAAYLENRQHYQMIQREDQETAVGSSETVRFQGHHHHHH

[1] = normalized to 3 μM reference compound with anti-CD3 plus anti-CD28 as 100% activation
[2] = Homo sapiens, 24 h, anti-CD3 plus anti-CD28, 24 hours, 3 μM reference compound = 100% activation
[3] = Homo sapiens, 24 h, normalized to 3 μM reference compound with anti-CD3 plus anti-CD28 as 100% activation
[4] = anti-CD3 plus anti-CD28, 24 hours, 3 μM reference compound = 100% activation

T1 sequence (P23743 with tags, fused parts or gaps): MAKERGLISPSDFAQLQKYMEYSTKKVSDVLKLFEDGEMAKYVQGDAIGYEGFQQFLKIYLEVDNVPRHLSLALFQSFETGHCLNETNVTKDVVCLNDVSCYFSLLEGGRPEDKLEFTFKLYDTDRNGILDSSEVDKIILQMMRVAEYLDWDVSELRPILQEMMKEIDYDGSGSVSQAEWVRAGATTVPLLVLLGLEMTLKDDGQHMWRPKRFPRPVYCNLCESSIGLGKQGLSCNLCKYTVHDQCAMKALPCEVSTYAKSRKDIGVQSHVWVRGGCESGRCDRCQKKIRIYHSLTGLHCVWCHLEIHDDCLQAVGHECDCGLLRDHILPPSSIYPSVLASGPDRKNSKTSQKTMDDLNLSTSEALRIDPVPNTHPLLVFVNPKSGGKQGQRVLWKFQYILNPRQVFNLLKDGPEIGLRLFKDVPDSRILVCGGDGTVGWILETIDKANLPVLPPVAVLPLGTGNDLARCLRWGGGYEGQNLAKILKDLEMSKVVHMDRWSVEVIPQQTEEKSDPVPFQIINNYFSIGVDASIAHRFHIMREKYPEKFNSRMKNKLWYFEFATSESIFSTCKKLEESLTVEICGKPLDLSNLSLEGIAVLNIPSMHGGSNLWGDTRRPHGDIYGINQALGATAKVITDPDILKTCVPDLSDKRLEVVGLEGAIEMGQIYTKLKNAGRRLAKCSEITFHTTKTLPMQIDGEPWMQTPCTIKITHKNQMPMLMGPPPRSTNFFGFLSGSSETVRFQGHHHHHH

SMILES	IC50 (human DGKα; liposome (LIPGLO) assay)	IC50 (human DGKζ; liposome (LIPGLO) assay)	IC50 (human DGKα; DGKα liposome (LIPGLO) assay)	IC50 (human DGKζ; DGKζ liposome (LIPGLO) assay)	EC50 (Human venous whole blood; [1])	EC50 (Human venous whole blood; [2])	EC50 (Human venous whole blood; [3])	EC50 (Human venous whole blood; [4])
CC[C@@H]1CN(c2cc(=O)n(C)c3ccc(C#N)nc23)[C@@H](CC)CN1Cc1cc(F)c(F)c(F)c1 [Example 1354]	1.6 µM	0.84 µM	–	–	–	–	1.2 µM	–
CC[C@@H]1CN(c2cc(=O)n(C)c3ccc(C#N)nc23)[C@@H](C)CN1Cc1ccc(C(F)(F)F)cc1C(F)(F)F [Example 1197]	9.5 µM	1.6 µM	–	–	–	–	3.5 µM	–
CC(c1ccc(F)c(Cl)c1)N1C[C@H](C)N(c2cc(=O)n(C)c3ccc(C#N)nc23)C[C@H]1C (single isomer, unassigned) [Example 1256]	0.68 µM	0.18 µM	–	–	0.48 µM	–	–	–
CC(c1ccc(OC(F)(F)F)cc1)N1C[C@H](C)N(c2cc(=O)n(C)c3ccc(C#N)nc23)C[C@H]1CN1CCOCC1 (single isomer, unassigned) [Example 1416]	48 µM	52 µM	–	–	20 µM	–	–	–
CC(c1ccc2c(c1)OCCO2)N1C[C@H](C)N(c2cc(=O)n(C)c3ccc(C#N)nc23)C[C@H]1C (single isomer, unassigned) [Example 1259]	5.6 µM	0.67 µM	–	–	4.9 µM	–	–	–
COc1cc(C(C)N2C[C@H](C)N(c3cc(=O)n(C)c4ccc(C#N)nc34)C[C@H]2C)ccc1F (single isomer, unassigned) [Example 1231]	3.8 µM	0.11 µM	–	–	1.2 µM	–	–	–
COc1cc(F)ccc1C(C)N1C[C@H](C)N(c2cc(=O)n(C)c3ccc(C#N)nc23)C[C@H]1C (single isomer, unassigned) [Example 1236]	11 µM	0.043 µM	–	–	1.3 µM	–	–	–
CC(c1ccc(C(F)(F)F)cn1)N1C[C@H](C)N(c2cc(=O)n(C)c3ccc(C#N)nc23)C[C@H]1C (single isomer, unassigned) [Example 643]	0.31 µM	1.6 µM	–	–	5.3 µM	–	–	–
Cc1cc(CN2C[C@H](C)N(c3cc(=O)n(C)c4ccc(C#N)nc34)C[C@H]2C)no1 [Example 1424]	3.7 µM	14 µM	–	–	–	–	20 µM	–
CC(c1cc(OC(F)(F)F)ccc1F)N1C[C@H](C)N(c2cc(=O)n(C)c3ccc(C#N)nc23)C[C@H]1C (stereo partly drawn) [Example 1203]	3 µM	1.6 µM	–	–	20 µM	–	–	–
CC(C)Oc1ccc(C(c2cccc(F)c2)N2C[C@H](C)N(c3cc(=O)n(C)c4ccc(C#N)nc34)C[C@H]2C)nc1 (stereo partly drawn) [Example 690]	1.5 µM	0.39 µM	–	–	–	–	3.5 µM	–
CC[C@H]1CN(C(C)c2ccc(OC)cc2)[C@H](CC)CN1c1cc(=O)n(C)c2ccc(C#N)nc12 (single isomer, unassigned) [Example 1366]	0.024 µM	0.015 µM	–	–	0.011 µM	–	–	–
C[C@@H]1CN(c2cc(=O)n(C)c3ccc(C#N)nc23)[C@@H](C)CN1Cc1cc(-c2ccccc2C#N)no1 [Example 1427]	21 µM	5.2 µM	–	–	–	–	20 µM	–
COc1cc(F)c(C(C)N2C[C@H](C)N(c3cc(=O)n(C)c4ccc(C#N)nc34)C[C@H]2C)cc1OC (single isomer, unassigned) [Example 1247]	24 µM	7.4 µM	–	–	20 µM	–	–	–

The next lines start with results.

IC50 (human DGKα; liposome (LIPGLO) assay)	IC50 (human DGKζ; liposome (LIPGLO) assay)	IC50 (human DGKα; DGKα liposome (LIPGLO) assay)	IC50 (human DGKζ; DGKζ liposome (LIPGLO) assay)	SMILES	EC50 (Human venous whole blood; [1])	EC50 (Human venous whole blood; [2])	EC50 (Human venous whole blood; [3])	EC50 (Human venous whole blood; [4])
0.5 µM	0.56 µM	–	–	C[C@@H]1CN(c2c(F)c(=O)n(C)c3ccc(C#N)nc23)[C@@H](C)CN1C(c1ccc(F)cc1)c1ccccc1F (stereo partly drawn) [Example 334, 7-fluoro-8-((2S,5R)-4-((2-fluorophenyl)(4-fluorophenyl)methyl)-2,5-dimethylpiperazin-1-yl)-5-methyl-6-oxo-5,6-dihydro-1,5-naphthyridine-2-carbonitrile]	1.9 µM	–	–	–
–	–	0.92 µM	2 µM	C[C@@H]1CN(c2c(C#N)c(=O)n(C)c3ccc(C#N)nc23)[C@@H](C)CN1C(c1ccc(F)cc1)c1ncccc1F (single isomer, unassigned) [Example 820]	–	2.2 µM	–	–
17 µM	0.51 µM	–	–	COc1cccc(C(c2ccc(F)cc2)N2C[C@H](C)N(c3cc(=O)n(C)c4ccc(C#N)nc34)C[C@H]2C)c1 (single isomer, unassigned) [Example 660]	–	–	0.66 µM	–
0.98 µM	0.45 µM	–	–	C[C@@H]1CN(c2cc(=O)n(C)c3ccc(C#N)nc23)[C@@H](C)CN1C(c1ccc(F)cn1)c1cccc2c1OC(C)(C)C2 (single isomer, unassigned) [Example 467]	20 µM	–	–	–
0.041 µM	0.075 µM	–	–	CC[C@@H]1CN(c2cc(=O)n(C)c3ccc(C#N)nc23)[C@@H](C)CN1C(C)c1ccc(C#N)cc1 (single isomer, unassigned) [Example 1345]	0.48 µM	–	–	–
–	–	0.69 µM	1.2 µM	C[C@@H]1CN(c2c(C#N)c(=O)n(C)c3ccc(C#N)nc23)CCN1C(c1cccc(F)c1)c1ccc(F)cn1 (single isomer, unassigned) [Example 911]	–	–	–	0.34 µM
0.2 µM	0.29 µM	–	–	C[C@@H]1CN(c2cc(=O)n(C)c3ccc(C#N)nc23)[C@@H](C)CN1C(Cc1nc(C2CC2)no1)c1ccc(F)cc1 (single isomer, unassigned) [Example 1327]	0.18 µM	–	–	–
120 µM	19 µM	–	–	C[C@@H]1CN(c2cc(=O)n(C)c3ccc(C#N)nc23)[C@@H](C)CN1C(c1ccc(F)cc1)C(F)(F)CO (single isomer, unassigned) [Example 1311]	–	–	11 µM	–
0.45 µM	2.1 µM	–	–	C[C@@H]1CN(c2c(C#N)c(=O)n(C)c3ccc(C#N)nc23)CCN1C(c1ccc(F)cc1)c1nc(C2CC2)no1 (single isomer, unassigned) [Example 1029]	3.6 µM	–	–	–
1.2 µM	4.7 µM	–	–	CC[C@H]1CN(C(c2ccc(F)cc2)c2ccc(C#N)cc2)[C@H](C)CN1c1cc(=O)n(C)c2ccc(C#N)nc12 (stereo partly drawn) [Example 1123]	–	–	2.6 µM	–
–	–	0.4 µM	0.16 µM	CCc1noc(C(c2ccc(F)cc2)N2C[C@H](C)N(c3cc(=O)n(C)c4ccc(C#N)nc34)C[C@H]2C)n1 (single isomer, unassigned) [Example 753]	–	–	–	0.64 µM
–	–	1.8 µM	6.7 µM	C[C@@H]1CN(c2c(C#N)c(=O)n(C)c3ccc(C#N)nc23)CCN1Cc1ccccc1C#N [Example 1009]	–	20 µM	–	–
–	–	9.8 µM	> 250 µM	CC(c1ccccc1F)N1C[C@H](C)N(c2c(C#N)c(=O)n(C)c3ccc(C#N)nc23)C[C@H]1C (single isomer, unassigned) [Example 798]	–	–	–	20 µM
17 µM	7.4 µM	–	–	Cc1ccc(C(c2cccc(F)c2)N2C[C@H](C)N(c3cc(=O)n(C)c4ccc(C#N)nc34)C[C@H]2C)cn1 (single isomer, unassigned) [Example 390]	2.6 µM	–	–	–
–	–	16 µM	0.2 µM	C[C@@H]1CN(c2cc(=O)n(C)c3ccc(C#N)nc23)[C@@H](C)CN1C(c1ccc(F)cc1)c1nc(C2CC2)nn1C (single isomer, unassigned) [Example 769]	–	–	–	0.46 µM
–	–	0.55 µM	0.49 µM	C[C@@H]1CN(c2cc(=O)n(C)c3ccc(C#N)nc23)[C@@H](C)CN1C(c1ccc(F)cc1)c1cnn(C2CC2)c1 (single isomer, unassigned) [Example 725]	–	1.5 µM	–	–
–	–	1 µM	1.9 µM	C[C@@H]1CN(c2c(C#N)c(=O)n(C)c3ccc(C#N)nc23)[C@@H](C)CN1C(c1ccc(F)cc1)c1cscn1 (single isomer, unassigned) [Example 857]	–	1.4 µM	–	–
–	–	2.6 µM	61 µM	C[C@@H]1CN(c2cc(=O)n(C)c3ccc(C#N)nc23)[C@@H](C)CN1C(c1ccc(F)cc1)c1ncno1 (stereo partly drawn) [Example 755]	–	18 µM	–	–
–	–	0.61 µM	1.3 µM	C[C@@H]1CN(c2cc(=O)n(C)c3ccc(C#N)nc23)[C@@H](C)CN1C(c1ccc(F)cc1)c1nc(C2CCOCC2)no1 (single isomer, unassigned) [Example 740]	–	–	–	0.12 µM
